Source: patent US20130224110A1, “USE OF ADENOSINE RECEPTOR SIGNALING TO MODULATE PERMEABILITY OF BLOOD-BRAIN BARRIER” (CORNELL UNIVERSITY, priority 2010, published 2013)

Experiments:
[1] = tested on: CD4+ lymphocytes in the brain and spinal cord; assay: CD4+ lymphocyte infiltration of brain and spinal cord after EAE induction (immunohistochemistry); format: in vivo; conditions: wild type mice, day 15 post-EAE induction, vs DMSO
Protocol: Anesthetized mice were perfused with PBS, and brains, spleens, and spinal cords were isolated and snap frozen in Tissue Tek-OCT medium. Five μm sections (brains in a sagittal orientation) were affixed to Supefrost/Plus slides (Fisher), fixed in acetone, and stored at −80° C. For immunostaining, slides were thawed and treated with 0.03% H2O2 in PBS to block endogenous peroxidase, blocked with Casein (Vector) in normal goat serum (Zymed), and then incubated with anti-CD45 (YW62.3), anti-CD4 (RM4-5), or anti-ICAM-1 (3E2). Slides were incubated with biotinylated goat anti-rat Ig (Jackson ImmunoResearch) and streptavidin-HRP (Zymed) and developed with an AEC (Red) substrate kit (Zymed) and a hematoxylin counterstain. […]
As CD73 catalyzes the breakdown of AMP to adenosine and ARs are expressed in the CNS (Tsutsui et al., “A1 Adenosine Receptor Upregulation and Activation Attenuates Neuroinflammation and Demyelination in a Model of Multiple Sclerosis,” J. Neurosci. 24:1521-1529 (2004)); Rosi et al., The Influence of Brain Inflammation Upon Neuronal Adenosine A2B Receptors,” J. Neurochem. 86:220-227 (2003), which are hereby incorporated by reference in their entirety), it was next determined if AR signaling is important during EAE progression. […] Since CD73 is highly expressed on the choroid plexus (FIG. 6C), it was next determined if ARs are also expressed on the choroid plexus. […]

blood brain barrier = assay: Evans Blue dye extravasation across the blood brain barrier; format: in vivo, mice; conditions: single i.v. injection 100 μl 0.01 nM one hour before dye
Protocol: The objective of this experiment was to determine if the blood brain barrier could be modulated by activation of adenosine receptors. NECA is a non-selective adenosine receptor agonist, with similar affinities for A1, A2A and A3 adenosine receptors and a low affinity for the A2b adenosine receptor. In order to determine if activation of adenosine receptors would induce extravasation of Evans Blue dye across the blood brain barrier (BBB), mice were treated with: NECA, a non-selective adenosine receptor agonist (n=5, 100 μl 0.01 nM); SCH58261, an A2A adenosine receptor specific antagonist (n=5, 1 mg/kg); pertussis toxin, an agent known to induce BBB leakiness and as such used as a positive control (n=7, 200 μl); and, PBS as a vehicle control (n=5, 100 μl). CD73^−/− mice, which lack the ability to produce extracellular adenosine, were also treated with NECA (n=4, 100 μl 0.01 nM). Treatments were administered as a single i.v. injection one hour prior to i.v. injection of 200 μl 1% Evans Blue dye ([…] total dye injected). Four hours after administration of Evans Blue, mice were anesthetized with a ketamine/xylazine mix and perfused via the left ventricle with ice cold PBS. […] Following extraction, the tissue/solvent mixture was centrifuged at 500×g for 30 minutes and 100 μl of supernatant was read on a BioTex spectrophotometer at 620 nm. Data is expressed as μg Evans Blue/ml DMF.

hCMEC/D3 cells = assay: Jurkat cell migration across hCMEC/D3 transwell in vitro BBB; format: cell-based, human; conditions: 24 hours
Protocol: hCMEC/D3 cells were seeded onto Transwell and allowed to grow to confluencey. 2×10^6 Jurkat cells were added to the upper chamber with or without NECA (general adenosine receptor [AR] agonist), CCPA (A1 AR agonist), CGS 21860 (A2A AR agonist), or DMSO vehicle. After 24 hours, migrated cells in the lower chamber were counted. Values are relative to the number of cells that migrate through non-[…]3 seeded transwells.

Structure (SMILES)	frequency of CD4+ lymphocytes in the brain and spinal cord [1]	Evans Blue dye migration vs. PBS control (blood brain barrier; CD73−/− mice)	Evans Blue dye migration vs. control (blood brain barrier; WT mice)	lymphocyte (Jurkat) migration across the in vitro BBB (hCMEC/D3 cells)
Nc1nc2c(cnn2CCc2ccccc2)c2nc(-c3ccco3)nn12 [SCH58261, 2-(2-Furanyl)-7-(2-phenylethyl)-7H-pyrazolo[4,3-e][1,2,4]triazolo[1,5-c]pyrimidin-5-amine]	significantly lower frequency of CD4^+ lymphocytes in the brain and spinal cord			
CCNC(=O)[C@H]1O[C@@H](n2cnc3c(N)ncnc32)[C@H](O)[C@@H]1O [NECA, 5′-N-ethylcarboxamido adenosine]		almost five fold increase	increase over control mice	induced some migration
